Measured values taken from the supplement of paper PMC8612539.
In brackets after ≈: the same amount, converted by molar mass.

System: Pasteurella multocida
Assay: minimum inhibitory concentration (MIC)
Protocol: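 Broth microdilution MIC (Sensititre BOPO7F bovine plate, CLSI methods) of 19 antimicrobials against field isolates of P. multocida, M. haemolytica, H. somni (deep nasopharyngeal swabs) and E. coli, Enterococcus spp. (rectal swabs) from weaned dairy heifers. Incubation 16-24 h at 35 C. MIC is the lowest concentration preventing visible growth. Values with <= or > lie at the tested range limits. Trimethoprim-sulfamethoxazole is given as the trimethoprim component of a 1:19 mixture.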

CC1(C)S[C@@H]2[C@H](NC(=O)Cc3ccccc3)C(=O)N2[C@H]1C(=O)O [Penicillin]
Conditions	minimum inhibitory concentration [µg/mL]
isolate (source animal id): 10	0.25 (≈ 0.748 µM)
isolate (source animal id): 11	0.25 (≈ 0.748 µM)
isolate (source animal id): 12	0.25 (≈ 0.748 µM)
isolate (source animal id): 19	0.25 (≈ 0.748 µM)
isolate (source animal id): 23	≤ 0.12
isolate (source animal id): 26	0.25 (≈ 0.748 µM)
isolate (source animal id): 98	≤ 0.12
isolate (source animal id): 104	≤ 0.12
isolate (source animal id): 115	≤ 0.12
isolate (source animal id): 117	0.25 (≈ 0.748 µM)
isolate (source animal id): 118	≤ 0.12
isolate (source animal id): 121	0.25 (≈ 0.748 µM)
isolate (source animal id): 124	0.25 (≈ 0.748 µM)
isolate (source animal id): 125	0.25 (≈ 0.748 µM)
isolate (source animal id): 128	≤ 0.12
isolate (source animal id): 131	0.25 (≈ 0.748 µM)
isolate (source animal id): 135	0.25 (≈ 0.748 µM)
isolate (source animal id): 136	0.25 (≈ 0.748 µM)
isolate (source animal id): 140	0.25 (≈ 0.748 µM)
isolate (source animal id): 144	≤ 0.12
isolate (source animal id): 146	≤ 0.12
isolate (source animal id): 150	≤ 0.12
isolate (source animal id): 151	≤ 0.12
isolate (source animal id): 153	≤ 0.12
isolate (source animal id): 155	0.25 (≈ 0.748 µM)
isolate (source animal id): 157	≤ 0.12
isolate (source animal id): 160	≤ 0.12
isolate (source animal id): 164	≤ 0.12
isolate (source animal id): 165	≤ 0.12
isolate (source animal id): 167	≤ 0.12
isolate (source animal id): 168	0.25 (≈ 0.748 µM)
isolate (source animal id): 169	≤ 0.12
isolate (source animal id): 170	> 8
isolate (source animal id): 171	≤ 0.12
isolate (source animal id): 172	≤ 0.12
isolate (source animal id): 173	0.25 (≈ 0.748 µM)
isolate (source animal id): 174	≤ 0.12
isolate (source animal id): 175	≤ 0.12
isolate (source animal id): 176	≤ 0.12
isolate (source animal id): 177	≤ 0.12
isolate (source animal id): 178	≤ 0.12
isolate (source animal id): 179	≤ 0.12
isolate (source animal id): 182	≤ 0.12
isolate (source animal id): 192	≤ 0.12
isolate (source animal id): 193	≤ 0.12
isolate (source animal id): 195	≤ 0.12
isolate (source animal id): 196	≤ 0.12
isolate (source animal id): 197	≤ 0.12
isolate (source animal id): 198	0.25 (≈ 0.748 µM)
isolate (source animal id): 199	≤ 0.12
isolate (source animal id): 200	≤ 0.12
isolate (source animal id): 201	≤ 0.12
isolate (source animal id): 203	≤ 0.12
isolate (source animal id): 204	≤ 0.12
isolate (source animal id): 205	0.25 (≈ 0.748 µM)
isolate (source animal id): 206	≤ 0.12
isolate (source animal id): 207	≤ 0.12
isolate (source animal id): 208	≤ 0.12
isolate (source animal id): 209	≤ 0.12
isolate (source animal id): 210	0.25 (≈ 0.748 µM)
isolate (source animal id): 213	≤ 0.12
isolate (source animal id): 216	≤ 0.12
isolate (source animal id): 223	0.25 (≈ 0.748 µM)
isolate (source animal id): 227	≤ 0.12
isolate (source animal id): 229	≤ 0.12
isolate (source animal id): 233	≤ 0.12
isolate (source animal id): 234	≤ 0.12
isolate (source animal id): 237	≤ 0.12
isolate (source animal id): 241	≤ 0.12
isolate (source animal id): 245	≤ 0.12
isolate (source animal id): 247	≤ 0.12
isolate (source animal id): 250	≤ 0.12
isolate (source animal id): 254	0.25 (≈ 0.748 µM)
isolate (source animal id): 255	≤ 0.12
isolate (source animal id): 258	≤ 0.12
isolate (source animal id): 261	≤ 0.12
isolate (source animal id): 262	≤ 0.12
isolate (source animal id): 269	≤ 0.12
isolate (source animal id): 270	≤ 0.12
isolate (source animal id): 274	≤ 0.12
isolate (source animal id): 275	0.25 (≈ 0.748 µM)
isolate (source animal id): 276	0.25 (≈ 0.748 µM)
isolate (source animal id): 277	≤ 0.12
isolate (source animal id): 278	≤ 0.12
isolate (source animal id): 279	0.25 (≈ 0.748 µM)
isolate (source animal id): 280	0.25 (≈ 0.748 µM)
isolate (source animal id): 284	0.25 (≈ 0.748 µM)
isolate (source animal id): 285	0.25 (≈ 0.748 µM)
isolate (source animal id): 287	0.25 (≈ 0.748 µM)
isolate (source animal id): 290	0.25 (≈ 0.748 µM)
isolate (source animal id): 294	0.25 (≈ 0.748 µM)
isolate (source animal id): 295	0.25 (≈ 0.748 µM)
isolate (source animal id): 296	≤ 0.12
isolate (source animal id): 307	0.25 (≈ 0.748 µM)
isolate (source animal id): 310	0.25 (≈ 0.748 µM)
isolate (source animal id): 311	0.25 (≈ 0.748 µM)
isolate (source animal id): 312	≤ 0.12
isolate (source animal id): 313	0.25 (≈ 0.748 µM)
isolate (source animal id): 315	0.25 (≈ 0.748 µM)
isolate (source animal id): 316	0.25 (≈ 0.748 µM)

CN[C@@H]1[C@H](O)[C@H](NC)[C@H]2O[C@@]3(O)C(=O)C[C@@H](C)O[C@H]3O[C@@H]2[C@H]1O [Spectinomycin]
Conditions	minimum inhibitory concentration [µg/mL]
isolate (source animal id): 10	32 (≈ 96.3 µM)
isolate (source animal id): 11	32 (≈ 96.3 µM)
isolate (source animal id): 12	32 (≈ 96.3 µM)
isolate (source animal id): 19	32 (≈ 96.3 µM)
isolate (source animal id): 23	32 (≈ 96.3 µM)
isolate (source animal id): 26	32 (≈ 96.3 µM)
isolate (source animal id): 98	32 (≈ 96.3 µM)
isolate (source animal id): 104	≤ 8
isolate (source animal id): 115	> 64
isolate (source animal id): 117	32 (≈ 96.3 µM)
isolate (source animal id): 118	32 (≈ 96.3 µM)
isolate (source animal id): 121	> 64
isolate (source animal id): 124	32 (≈ 96.3 µM)
isolate (source animal id): 125	32 (≈ 96.3 µM)
isolate (source animal id): 128	> 64
isolate (source animal id): 131	> 64
isolate (source animal id): 135	> 64
isolate (source animal id): 136	> 64
isolate (source animal id): 140	16 (≈ 48.1 µM)
isolate (source animal id): 144	32 (≈ 96.3 µM)
isolate (source animal id): 146	32 (≈ 96.3 µM)
isolate (source animal id): 150	> 64
isolate (source animal id): 151	> 64
isolate (source animal id): 153	16 (≈ 48.1 µM)
isolate (source animal id): 155	32 (≈ 96.3 µM)
isolate (source animal id): 157	16 (≈ 48.1 µM)
isolate (source animal id): 160	> 64
isolate (source animal id): 164	> 64
isolate (source animal id): 165	> 64
isolate (source animal id): 167	> 64
isolate (source animal id): 168	32 (≈ 96.3 µM)
isolate (source animal id): 169	32 (≈ 96.3 µM)
isolate (source animal id): 170	32 (≈ 96.3 µM)
isolate (source animal id): 171	32 (≈ 96.3 µM)
isolate (source animal id): 172	> 64
isolate (source animal id): 173	32 (≈ 96.3 µM)
isolate (source animal id): 174	> 64
isolate (source animal id): 175	> 64
isolate (source animal id): 176	> 64
isolate (source animal id): 177	> 64
isolate (source animal id): 178	> 64
isolate (source animal id): 179	32 (≈ 96.3 µM)
isolate (source animal id): 182	> 64
isolate (source animal id): 192	> 64
isolate (source animal id): 193	> 64
isolate (source animal id): 195	> 64
isolate (source animal id): 196	> 64
isolate (source animal id): 197	> 64
isolate (source animal id): 198	32 (≈ 96.3 µM)
isolate (source animal id): 199	32 (≈ 96.3 µM)
isolate (source animal id): 200	32 (≈ 96.3 µM)
isolate (source animal id): 201	> 64
isolate (source animal id): 203	> 64
isolate (source animal id): 204	> 64
isolate (source animal id): 205	32 (≈ 96.3 µM)
isolate (source animal id): 206	> 64
isolate (source animal id): 207	> 64
isolate (source animal id): 208	32 (≈ 96.3 µM)
isolate (source animal id): 209	> 64
isolate (source animal id): 210	32 (≈ 96.3 µM)
isolate (source animal id): 213	32 (≈ 96.3 µM)
isolate (source animal id): 216	> 64
isolate (source animal id): 223	32 (≈ 96.3 µM)
isolate (source animal id): 227	> 64
isolate (source animal id): 229	32 (≈ 96.3 µM)
isolate (source animal id): 233	32 (≈ 96.3 µM)
isolate (source animal id): 234	32 (≈ 96.3 µM)
isolate (source animal id): 237	32 (≈ 96.3 µM)
isolate (source animal id): 241	16 (≈ 48.1 µM)
isolate (source animal id): 245	32 (≈ 96.3 µM)
isolate (source animal id): 247	32 (≈ 96.3 µM)
isolate (source animal id): 250	16 (≈ 48.1 µM)
isolate (source animal id): 254	32 (≈ 96.3 µM)
isolate (source animal id): 255	32 (≈ 96.3 µM)
isolate (source animal id): 258	> 64
isolate (source animal id): 261	32 (≈ 96.3 µM)
isolate (source animal id): 262	32 (≈ 96.3 µM)
isolate (source animal id): 269	32 (≈ 96.3 µM)
isolate (source animal id): 270	32 (≈ 96.3 µM)
isolate (source animal id): 274	32 (≈ 96.3 µM)
isolate (source animal id): 275	32 (≈ 96.3 µM)
isolate (source animal id): 276	16 (≈ 48.1 µM)
isolate (source animal id): 277	32 (≈ 96.3 µM)
isolate (source animal id): 278	32 (≈ 96.3 µM)
isolate (source animal id): 279	32 (≈ 96.3 µM)
isolate (source animal id): 280	32 (≈ 96.3 µM)
isolate (source animal id): 284	32 (≈ 96.3 µM)
isolate (source animal id): 285	32 (≈ 96.3 µM)
isolate (source animal id): 287	32 (≈ 96.3 µM)
isolate (source animal id): 290	32 (≈ 96.3 µM)
isolate (source animal id): 294	32 (≈ 96.3 µM)
isolate (source animal id): 295	16 (≈ 48.1 µM)
isolate (source animal id): 296	32 (≈ 96.3 µM)
isolate (source animal id): 307	32 (≈ 96.3 µM)
isolate (source animal id): 310	32 (≈ 96.3 µM)
isolate (source animal id): 311	16 (≈ 48.1 µM)
isolate (source animal id): 312	16 (≈ 48.1 µM)
isolate (source animal id): 313	16 (≈ 48.1 µM)
isolate (source animal id): 315	32 (≈ 96.3 µM)
isolate (source animal id): 316	32 (≈ 96.3 µM)
